The values below come from ChEMBL document CHEMBL1201862, “PubChem BioAssay data set” (2004).

Test systems include U-251; EKVX; COLO 205; SF-539; CCRF-CEM; DU-145; UACC-62; OVCAR-3; LOX IMVI; HCC 2998; OVCAR-8; NCI/ADR-RES; A549; UO-31; SW-620; HT-29; NCI-H522; UACC-257; K562.
Common to all, as to experiment: inhibition of tumour cell growth, NCI panel, 48 h

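Dose response: 5 concentrations. Exposure: 48 h. Format: 96-well plates. Endpoint: linear interpolation; highest concentration if not reached. GI50: concentration for 50% inhibition of growth.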 The source made the active and inactive calls. Cut-off read from the data, not from the text of the source: active = GI50 up to about 1.1 µM and inactive = higher.

Consider `C/C(=N\Nc1nc2ccccc2s1)c1cc2ccccc2cn1`, for which the GI50 in the experiment on U-251 was 4.68 µM (inactive); in the experiment on EKVX, 3.34 µM (inactive); in the experiment with COLO 205, 1.52 µM (inactive); in the experiment with SF-539, 3.83 µM (inactive); in the experiment with CCRF-CEM, 2.81 µM (inactive); with DU-145, 3.85 µM (inactive). The GI50 is 3.51 µM (inactive) in the experiment with UACC-62; 1.65 µM (inactive) in the experiment on OVCAR-3; 2.49 µM (inactive) in the experiment with LOX IMVI; 7.76 µM (inactive) with HCC 2998; 2.84 µM (inactive) with OVCAR-8; 3.25 µM (inactive) in the experiment with NCI/ADR-RES. For the same molecule, the GI50 in the experiment with A549 was 3.66 µM (inactive); in the experiment with UO-31 it was 1.48 µM (inactive); in the experiment with SW-620, 3.95 µM (inactive); in the experiment on HT-29 it was 3.31 µM (inactive); in the experiment on NCI-H522, 4.78 µM (inactive); with UACC-257 it was 3.55 µM (inactive).

Take `OC1(c2ccccc2)CCCCCCCCC(O)(c2ccccc2)CCCCCCCC1` (stereo not given): the GI50 with U-251, in the experiment on EKVX, with COLO 205, in the experiment on SF-539, in the experiment on DU-145 and in the experiment with UACC-62 was > 100 µM (inactive) throughout. In addition, the GI50 in the experiment on OVCAR-3, in the experiment on LOX IMVI, with HCC 2998, in the experiment on OVCAR-8, in the experiment with NCI/ADR-RES and in the experiment on A549 was > 100 µM (inactive) each time. Also, the GI50 in the experiment with UO-31, in the experiment with SW-620, with HT-29, in the experiment with NCI-H522, with UACC-257 and in the experiment with K562 was > 100 µM (inactive) each time.

On to `CC1(C)CC(=O)C(=CNc2nc(-c3ccccc3)cs2)C(=O)C1`, for which the GI50 is 29.3 µM (inactive) in the experiment on U-251; 26.2 µM (inactive) with EKVX; 33 µM (inactive) with COLO 205; 26.4 µM (inactive) in the experiment with SF-539; 57 µM (inactive) in the experiment on DU-145; 40.7 µM (inactive) with OVCAR-3. Also, the GI50 is > 100 µM (inactive) in the experiment with LOX IMVI; 31.2 µM (inactive) in the experiment with HCC 2998; 48.6 µM (inactive) in the experiment with OVCAR-8; 34.4 µM (inactive) in the experiment with NCI/ADR-RES; 49 µM (inactive) with A549; 20.7 µM (inactive) in the experiment on UO-31. Also, the GI50 in the experiment on SW-620 is 31.4 µM (inactive); in the experiment on HT-29, 33.6 µM (inactive); in the experiment with UACC-257 it was 35.1 µM (inactive).

As for `COCCOCN(C(=O)C1=CCC2(CC1)OCCO2)c1ccccc1I`, the GI50 in the experiment with U-251 was > 50 µM (inactive); in the experiment with EKVX it was 29.2 µM (inactive); with COLO 205 it was > 50 µM (inactive); with CCRF-CEM, > 50 µM (inactive); in the experiment on DU-145, > 50 µM (inactive); in the experiment with UACC-62 it was > 50 µM (inactive). In addition, the GI50 with OVCAR-3, with LOX IMVI, in the experiment on HCC 2998, with OVCAR-8, in the experiment on NCI/ADR-RES and with A549 was > 50 µM (inactive) throughout. In addition, the GI50 in the experiment on UO-31, with SW-620, in the experiment on HT-29 and with UACC-257 was > 50 µM (inactive) throughout.

As to `Nc1nc(CCc2n[nH]c(N)n2)n[nH]1`, the GI50 in the experiment on U-251, with EKVX, with COLO 205, with SF-539, in the experiment with CCRF-CEM and in the experiment on UACC-62 was > 100 µM (inactive) each time. Moreover, the GI50 in the experiment with OVCAR-3, in the experiment with LOX IMVI, with HCC 2998, with OVCAR-8, with A549 and in the experiment on UO-31 was > 100 µM (inactive) in each case. The GI50 in the experiment with SW-620, in the experiment with HT-29, in the experiment on NCI-H522, in the experiment on UACC-257 and with K562 was > 100 µM (inactive) each time.

On to `C/C(=N\Nc1ccccc1Br)c1cccc(/C(C)=N/Nc2ccccc2Br)n1`, for which the GI50 was > 100 µM (inactive) in the experiment on U-251; > 100 µM (inactive) in the experiment on EKVX; 68.2 µM (inactive) in the experiment with COLO 205; 88.5 µM (inactive) in the experiment with SF-539; > 100 µM (inactive) in the experiment with CCRF-CEM; > 100 µM (inactive) with DU-145. Also, the GI50 is 68.1 µM (inactive) with OVCAR-3; > 100 µM (inactive) in the experiment with LOX IMVI; > 100 µM (inactive) with HCC 2998; > 100 µM (inactive) in the experiment with OVCAR-8; > 100 µM (inactive) in the experiment with NCI/ADR-RES; > 100 µM (inactive) with A549. Besides, the GI50 in the experiment with UO-31 was > 100 µM (inactive); in the experiment with SW-620 it was > 100 µM (inactive); in the experiment on HT-29, > 100 µM (inactive); in the experiment with UACC-257, > 100 µM (inactive); in the experiment with K562, 39.7 µM (inactive).

In the case of `C/C(=N\NC(N)=S)C(CN(CC(C)C)CC(C)C)C(=O)Nc1ccc(C)cc1C` (stereo not given), the GI50 in the experiment with U-251 was > 100 µM (inactive); with EKVX, 54.6 µM (inactive); in the experiment with COLO 205, > 100 µM (inactive); with SF-539, > 100 µM (inactive); in the experiment on CCRF-CEM it was > 100 µM (inactive); in the experiment with UACC-62 it was > 100 µM (inactive). Besides, the GI50 with OVCAR-3, with LOX IMVI, with HCC 2998, with OVCAR-8, in the experiment on A549 and in the experiment with UO-31 was > 100 µM (inactive) each time. Moreover, the GI50 in the experiment on SW-620, with HT-29, in the experiment with NCI-H522, with UACC-257 and in the experiment on K562 was > 100 µM (inactive) each time.

As to `Cc1ccccc1C1=[N+]([O-])c2ccc(Cl)cc2C1=O`, the GI50 is 17.7 µM (inactive) with U-251; 12.5 µM (inactive) in the experiment with EKVX; 7.76 µM (inactive) in the experiment on COLO 205; 17.7 µM (inactive) in the experiment on SF-539; 3.82 µM (inactive) with CCRF-CEM; 12.4 µM (inactive) in the experiment with UACC-62. The GI50 is 2.6 µM (inactive) with OVCAR-3; 7.78 µM (inactive) in the experiment with LOX IMVI; 13.6 µM (inactive) in the experiment on HCC 2998; 7.14 µM (inactive) with OVCAR-8; 19.6 µM (inactive) in the experiment on A549; 14.3 µM (inactive) in the experiment on UO-31. Moreover, the GI50 was 25.4 µM (inactive) in the experiment with SW-620; 5.01 µM (inactive) with HT-29; 11.5 µM (inactive) in the experiment with NCI-H522; 13.1 µM (inactive) in the experiment with UACC-257; 6.12 µM (inactive) in the experiment with K562.

For `O=S(=O)(c1ccccc1)N1CCC1c1ccccc1` (stereo not given), the GI50 is > 100 µM (inactive) in the experiment with U-251; > 100 µM (inactive) with EKVX; > 100 µM (inactive) in the experiment with COLO 205; > 100 µM (inactive) with SF-539; > 100 µM (inactive) in the experiment with CCRF-CEM; 77.8 µM (inactive) in the experiment with UACC-62. For the same molecule, the GI50 in the experiment with OVCAR-3 was > 100 µM (inactive); with LOX IMVI it was > 100 µM (inactive); in the experiment with HCC 2998 it was > 100 µM (inactive); in the experiment on OVCAR-8, > 100 µM (inactive); with A549 it was > 100 µM (inactive); in the experiment on UO-31 it was 29.6 µM (inactive). In addition, the GI50 was > 100 µM (inactive) in the experiment on SW-620; > 100 µM (inactive) in the experiment on HT-29; 98.9 µM (inactive) with NCI-H522; 63.2 µM (inactive) in the experiment with UACC-257; 54.3 µM (inactive) in the experiment on K562.

Consider `CCCN(CCCCC(NC(C)=O)C(=O)NCc1ccccc1)C(=O)N(C)N=O` (stereo not given), for which the GI50 in the experiment with U-251, in the experiment with EKVX, in the experiment with COLO 205, with SF-539, in the experiment on CCRF-CEM and with UACC-62 was > 100 µM (inactive) in each case. The GI50 in the experiment on OVCAR-3, in the experiment on LOX IMVI, with HCC 2998, in the experiment with OVCAR-8, in the experiment with A549 and in the experiment with UO-31 was > 100 µM (inactive) throughout. Moreover, the GI50 with SW-620, in the experiment on HT-29, with NCI-H522, in the experiment on UACC-257 and in the experiment on K562 was > 100 µM (inactive) in each case.

Regarding `C[C@]12CCC3c4ccc(O)cc4CC[C@H]3C1CC(=O)NC2=O` (stereo not given in full), the GI50 in the experiment with U-251, in the experiment with COLO 205, with SF-539, with CCRF-CEM, in the experiment on DU-145 and with OVCAR-3 was > 10 µM (inactive) in each case. Also, the GI50 in the experiment on LOX IMVI, in the experiment with HCC 2998, in the experiment with OVCAR-8, in the experiment with NCI/ADR-RES, in the experiment with A549 and in the experiment on UO-31 was > 10 µM (inactive) throughout. Also, the GI50 in the experiment with SW-620, with HT-29, in the experiment with UACC-257 and with K562 was > 10 µM (inactive) each time.

Regarding `CC1(C)CCC2=C(O1)c1ccccc1C(=O)C2=O` [LAPACHONE], the GI50 was 0.337 µM (active) with U-251; 1.72 µM (inactive) in the experiment on EKVX; 1.91 µM (inactive) with COLO 205; 0.463 µM (active) with SF-539; 0.908 µM (active) in the experiment with CCRF-CEM; 0.64 µM (active) in the experiment on DU-145. For the same molecule, the GI50 is 0.475 µM (active) in the experiment with UACC-62; 0.234 µM (active) with OVCAR-3; 0.398 µM (active) in the experiment on OVCAR-8; 0.753 µM (active) in the experiment on A549; 0.432 µM (active) in the experiment with SW-620; 2.5 µM (inactive) in the experiment with HT-29. Besides, the GI50 in the experiment on NCI-H522 was 0.605 µM (active); with UACC-257 it was 0.0938 µM (active); with K562, 0.245 µM (active).
